The term IC50 denotes the point on the concentration scale where inhibition reaches its midpoint.

Where “and” joins values, the source holds several entries; their conditions need not be identical. Equal values may be shown once. Entries after “also recorded” stand apart in the source; their conditions may differ. Read-outs that look alike come from different tables or passages of the source.

Results on two substances are retold here after US20070149456A1, “Epithelial sodium channel inhibiting agents and uses therefor” (University of Pittsburgh, priority 2005, published 2007).

The target in test [1] is T1, endogenous ENaC in HAE cells (Homo sapiens, UniProt P37088+P51168+P51170).
T1 construct: endogenous in cells; host or cells: primary human airway (bronchial) epithelial cells from transplant or donor lungs
Briefly: Amiloride-sensitive short circuit current in primary human airway epithelial (HAE) cell monolayers, Ussing chamber. Type of test: cell-based. The note with it: for Ki: HBE cells; for inhibition of amiloride sensitive short circuit currents: HAE, increasing concentrations of peptide. From the text: Primary Cultures of HAE Cells—HAE cells were obtained from excess pathological tissue remaining after lung transplantation or from organ donor lungs deemed not suitable for transplantation under a protocol approved by the University of Pittsburgh […] Review Board. All cells were isolated from second through sixth generation bronchi and grown on permeable Transwell supports (Coming Inc.) as previously described (Devor, D. C., and Pilewski, J. M. (1999), UTP inhibits Na^+ absorption in wild-type and DeltaF508 CFTR-expressing human bronchial epithelia, Am. J. Physiol. 276, C827-C837 31. ).
Short Circuit Current Measurements—Cell culture inserts were mounted in modified Ussing chambers (Harvard Apparatus, Holliston, Mass.), and the monolayers were continuously short-circuited with a voltage/current clamp system (Physiologic Instruments, San Diego, Calif.). A 2-mV bipolar pulse was applied periodically to measure the resistance of the monolayer. As previously described by Bridges et al. (Bridges, R. J., Newton, B. B., Pilewski, J. M., Devor, D. C., Poll, C. T., and Hall, R. L. (2001), Na+ transport in normal and CF human bronchial epithelial cells is inhibited by BAY 39-9437, Am. J. Physiol. 281, L16-L23 32, Na^+ transport in normal and CF human bronchial epithelial cells is inhibited by BAY 39-9437), the bath solution contained (in mM) 120 NaCl, 25 NaHCO3, 3.3 KH2PO4, 0.8 K2HPO4, 1.2 MgCl2, 1.2 CaCl2, and 10 glucose. The pH of this solution was 7.4 when gassed with a mixture of 95% O2-5% CO2 at 37° C.
Primary cultures of HAE cells grown on permeable membrane supports and mounted in modified Ussing chambers were continuously short-circuited by a voltage clamp amplifier (Physiologic Instruments, San Diego, Calif.). Monolayers were exposed to increasing concentrations of either the γ-peptide (closed circles) or a scrambled peptide (open circles). […] (n=8-9).
Vectors and Cell Culture—Wild-type, C-terminal and double epitope tagged mouse ENaC subunit cDNAs were previously described (Hughey, R. P., Mueller, G. M., Bruns, J. B., Kinlough, C. L., Poland, P. A., Harkleroad, K. L., Carattino, M. D., and Kleyman, T. R. (2003) J Biol Chem 278, 37073-37082 and Ahn, Y. J., Brooker, D. R., Kosari, F., Harte, B. J., Li, J., Mackler, S. A., and Kleyman, T. R. (1999), Cloning and functional expression of the mouse epithelial sodium channel, Am J Physiol 277, F121-129). The γ subunit mutations were generated in pcDNA3.1 (+) using a standard two-step PCR method. A cDNA clone (IMAGE #: 3600399) encoding full length mouse prostasin was obtained from Open Biosystems (Huntsville, Ala.) and sub-cloned into pcDNA3.1 (+) (Invitrogen, Carlsbad, Calif.). MDCK type 1 cells were a gift from Barry M. Gumbiner (Memorial Sloan-Kettering Cancer Center, New York) and were cultured as previously described (Lavelle, J. P., Negrete, H. O., Poland, P. A., Kinlough, C. L., Meyers, S. D., Hughey, R. P., and Zeidel, M. L. (1997), Low permeabilities of MDCK cell monolayers: a model barrier epithelium, Am J Physiol 273, F67-75). CCD (mpkCCDc14) cells were a gift from Alain Vandewalle (Institut National de la Santéet de la Recherche Médicale, Paris, France) and were cultured as previously described (Bens, M., Vallet, V., Cluzeaud, F., Pascual-Letallec, L., Kahn, A., Rafestin-Oblin, M. E., Rossier, B. C., and Vandewalle, A. (1999) J Am Soc Nephrol 10, 923-934). HAE cells were isolated and cultured as described (Devor, D. C., Bridges, R. J., and Pilewski, J. M. (2000), Pharmacological modulation of ion transport across wild-type and DeltaF508 CFTR-expressing human bronchial epithelia, Am J Physiol Cell Physiol 279, C461-479). […]

Test [2] addresses T2, endogenous ENaC in mpkCCDc14 cells (Mus musculus, UniProt Q61180+Q9WU38+Q9WU39).
T2 construct: endogenous ENaC in a mouse cortical collecting duct (mpkCCDc14) cell line; endogenous in cells; host or cells: mpkCCDc14 mouse cortical collecting duct cell line
The note with it: mouse CCD cells; stated jointly with human airway; Carattino 2006; read-out: IC50, inhibition of ENaC activity; cited from earlier work.

Test [3] relates to αR205A,Δ206-231βγ. Briefly: Two-electrode voltage clamp in oocytes expressing channels lacking furin cleavage and the tract αAsp-206-Arg-231. It counts as cell-based, mouse. Conditions: 1 μM α-26. An excerpt:
Oocyte Expression—cRNAs for α, β, γ mouse ENaC (wild-type and mutant) subunits and mouse prostasin were synthesized with T3 or T7 m-Message mMachineTM (Ambion, Austin, Tex.). Subunits carrying furin cleavage consensus site mutations and the corresponding wild-type subunits have amino-terminal HA and carboxyl-terminal V5 tags (Hughey, R. P., Bruns, J. B., Kinlough, C. L., Harkleroad, K. L., Tong, Q., Carattino, M. D., Johnson, J. P., Stockand, J. D., and Kleyman, T. R. (2004) J. Biol. Chem. 279, 18111-18114 18). Stage V-VI Xenopus laevis oocytes were pretreated with 1.5 mg/ml of type IV collagenase and injected with 0.5-2 ng of cRNA/subunit. Injected oocytes were maintained as previously reported (Carattino, M. D., Hill, W. G., and Kleyman, T. R. (2003), Arachidonic Acid Regulates Surface Expression of Epithelial Sodium Channels, J Biol. Chem. 278, 36202-36213 29).
Two-electrode Voltage Clamp—Two-electrode voltage clamp (TEV) was performed as previously described (Carattino, M. D., Hill, W. G., and Kleyman, T. R. (2003) J Biol. Chem. 278, 36202-36213 29). The extracellular solution (TEV solution) was (in mM): 110 NaCl, 2 KCl, 1.54 CaCl2, 10 HEPES, pH 7.4, or otherwise as indicated. […] ENaC-mediated whole cell Na^+ currents, at −60 mV,were defined as the amiloride-sensitive component of the current. […]
Background: Two-electrode voltage clamp holds a large cell at a set potential and records current.

T1 sequence (P37088 1-178): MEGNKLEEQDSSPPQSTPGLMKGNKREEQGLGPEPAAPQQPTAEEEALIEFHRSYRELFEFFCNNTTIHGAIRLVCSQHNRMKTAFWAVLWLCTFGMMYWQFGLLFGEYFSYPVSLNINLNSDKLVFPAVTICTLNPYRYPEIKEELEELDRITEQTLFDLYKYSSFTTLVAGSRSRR
T1 sequence (P37088 205-669): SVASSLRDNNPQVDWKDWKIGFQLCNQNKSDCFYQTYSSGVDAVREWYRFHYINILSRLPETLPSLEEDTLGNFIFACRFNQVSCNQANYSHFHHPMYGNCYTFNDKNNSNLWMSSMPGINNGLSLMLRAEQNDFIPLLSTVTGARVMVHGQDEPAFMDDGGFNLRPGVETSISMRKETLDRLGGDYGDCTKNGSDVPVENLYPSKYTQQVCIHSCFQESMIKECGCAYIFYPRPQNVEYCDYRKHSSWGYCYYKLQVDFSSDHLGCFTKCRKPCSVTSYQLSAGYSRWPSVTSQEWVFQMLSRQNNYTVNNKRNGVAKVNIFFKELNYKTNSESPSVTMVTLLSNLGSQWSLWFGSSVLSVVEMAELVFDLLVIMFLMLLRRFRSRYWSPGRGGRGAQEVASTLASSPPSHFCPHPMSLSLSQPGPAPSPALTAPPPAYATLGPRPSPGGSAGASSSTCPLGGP
T1 sequence (P51168 whole entry): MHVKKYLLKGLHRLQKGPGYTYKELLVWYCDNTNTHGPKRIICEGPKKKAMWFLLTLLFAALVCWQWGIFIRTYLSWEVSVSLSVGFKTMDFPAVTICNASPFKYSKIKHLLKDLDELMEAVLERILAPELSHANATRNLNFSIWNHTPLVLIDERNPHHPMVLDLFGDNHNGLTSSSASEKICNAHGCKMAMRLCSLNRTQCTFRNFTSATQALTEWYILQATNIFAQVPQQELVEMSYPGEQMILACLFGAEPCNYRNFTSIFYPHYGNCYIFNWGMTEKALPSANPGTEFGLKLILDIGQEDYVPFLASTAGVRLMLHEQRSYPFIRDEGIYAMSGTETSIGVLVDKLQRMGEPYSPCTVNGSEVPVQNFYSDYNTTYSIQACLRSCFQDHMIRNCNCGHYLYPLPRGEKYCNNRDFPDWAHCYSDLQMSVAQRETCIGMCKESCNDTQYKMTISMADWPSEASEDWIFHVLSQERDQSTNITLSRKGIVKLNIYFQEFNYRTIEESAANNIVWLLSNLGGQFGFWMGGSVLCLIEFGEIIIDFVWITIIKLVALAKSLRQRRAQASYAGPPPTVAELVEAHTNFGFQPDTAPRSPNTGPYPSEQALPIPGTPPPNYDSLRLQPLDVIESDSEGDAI
T1 sequence (P51170 1-138): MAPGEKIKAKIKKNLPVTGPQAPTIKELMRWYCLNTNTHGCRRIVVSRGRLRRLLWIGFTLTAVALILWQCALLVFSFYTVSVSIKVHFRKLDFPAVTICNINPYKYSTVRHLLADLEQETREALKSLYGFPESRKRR
T1 sequence (P51170 182-649): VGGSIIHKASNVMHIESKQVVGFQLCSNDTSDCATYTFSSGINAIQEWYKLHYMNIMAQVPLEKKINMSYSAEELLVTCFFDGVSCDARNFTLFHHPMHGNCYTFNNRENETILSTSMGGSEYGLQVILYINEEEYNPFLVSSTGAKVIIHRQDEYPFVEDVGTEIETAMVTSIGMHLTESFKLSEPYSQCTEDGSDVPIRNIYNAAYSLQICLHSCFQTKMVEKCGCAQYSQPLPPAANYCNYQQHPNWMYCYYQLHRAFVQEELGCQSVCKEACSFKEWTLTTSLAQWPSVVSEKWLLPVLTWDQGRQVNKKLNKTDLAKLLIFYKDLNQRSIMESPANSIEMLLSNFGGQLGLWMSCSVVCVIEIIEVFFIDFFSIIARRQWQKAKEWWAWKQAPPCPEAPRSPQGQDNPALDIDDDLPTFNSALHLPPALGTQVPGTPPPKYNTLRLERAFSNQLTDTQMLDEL
T2 sequence (Q61180 1-205): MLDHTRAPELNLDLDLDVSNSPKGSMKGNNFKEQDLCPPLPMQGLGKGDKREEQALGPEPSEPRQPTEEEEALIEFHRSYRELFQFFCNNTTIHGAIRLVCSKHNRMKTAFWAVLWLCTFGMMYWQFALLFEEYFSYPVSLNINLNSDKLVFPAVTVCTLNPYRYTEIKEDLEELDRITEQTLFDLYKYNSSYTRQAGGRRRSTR
T2 sequence (Q61180 232-699): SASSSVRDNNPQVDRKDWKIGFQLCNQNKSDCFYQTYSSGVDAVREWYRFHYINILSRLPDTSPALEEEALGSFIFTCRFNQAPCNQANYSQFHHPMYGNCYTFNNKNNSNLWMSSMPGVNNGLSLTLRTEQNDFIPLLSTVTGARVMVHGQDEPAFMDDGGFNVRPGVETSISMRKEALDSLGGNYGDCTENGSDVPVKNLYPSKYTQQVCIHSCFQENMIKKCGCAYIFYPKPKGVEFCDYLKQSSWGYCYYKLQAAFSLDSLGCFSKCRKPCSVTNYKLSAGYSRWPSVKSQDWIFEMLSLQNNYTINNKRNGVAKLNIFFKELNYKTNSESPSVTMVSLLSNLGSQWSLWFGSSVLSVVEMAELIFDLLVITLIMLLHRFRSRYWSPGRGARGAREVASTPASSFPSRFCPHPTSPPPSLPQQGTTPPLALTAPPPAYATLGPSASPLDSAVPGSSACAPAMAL
T2 sequence (Q9WU38 whole entry): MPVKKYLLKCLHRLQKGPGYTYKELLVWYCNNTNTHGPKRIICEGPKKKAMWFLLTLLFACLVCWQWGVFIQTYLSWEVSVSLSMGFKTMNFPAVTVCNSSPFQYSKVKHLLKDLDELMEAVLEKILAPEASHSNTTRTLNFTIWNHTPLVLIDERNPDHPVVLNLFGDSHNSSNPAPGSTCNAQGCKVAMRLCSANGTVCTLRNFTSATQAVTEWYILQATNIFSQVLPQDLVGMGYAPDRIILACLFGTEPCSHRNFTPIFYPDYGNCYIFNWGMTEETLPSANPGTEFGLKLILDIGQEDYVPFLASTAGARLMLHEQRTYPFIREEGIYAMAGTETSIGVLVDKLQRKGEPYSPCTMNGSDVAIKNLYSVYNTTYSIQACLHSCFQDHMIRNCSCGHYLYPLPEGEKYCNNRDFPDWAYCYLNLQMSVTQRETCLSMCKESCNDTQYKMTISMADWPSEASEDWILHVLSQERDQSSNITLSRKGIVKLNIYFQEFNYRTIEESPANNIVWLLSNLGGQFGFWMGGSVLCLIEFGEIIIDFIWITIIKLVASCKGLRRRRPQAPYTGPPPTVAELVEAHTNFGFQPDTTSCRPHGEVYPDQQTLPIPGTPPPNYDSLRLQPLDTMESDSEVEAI
T2 sequence (Q9WU39 1-143): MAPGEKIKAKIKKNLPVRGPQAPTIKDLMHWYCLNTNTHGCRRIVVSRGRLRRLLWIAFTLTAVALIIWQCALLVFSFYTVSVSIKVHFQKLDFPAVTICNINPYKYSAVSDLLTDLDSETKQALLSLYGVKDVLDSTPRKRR
T2 sequence (Q9WU39 187-655): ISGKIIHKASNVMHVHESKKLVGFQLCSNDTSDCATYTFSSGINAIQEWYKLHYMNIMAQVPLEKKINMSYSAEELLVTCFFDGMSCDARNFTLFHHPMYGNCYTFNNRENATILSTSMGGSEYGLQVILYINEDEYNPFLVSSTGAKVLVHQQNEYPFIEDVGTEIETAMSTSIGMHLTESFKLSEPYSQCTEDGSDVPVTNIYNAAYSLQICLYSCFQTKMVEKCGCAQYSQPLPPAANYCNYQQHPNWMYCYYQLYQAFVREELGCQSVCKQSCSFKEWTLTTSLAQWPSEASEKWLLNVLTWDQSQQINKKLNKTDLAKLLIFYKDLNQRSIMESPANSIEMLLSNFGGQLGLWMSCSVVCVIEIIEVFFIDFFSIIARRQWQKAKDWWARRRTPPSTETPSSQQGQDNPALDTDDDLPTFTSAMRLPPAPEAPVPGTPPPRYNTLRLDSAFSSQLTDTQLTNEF

Take “Ac-DLRGALPHPLQRLRTPPPPNPARSAR-NH2 [α-26]”: the Ki in test [1] (stated jointly for HBE or mpkCCDc14, read-out: Ki, block of endogenous ENaC activity) lay in the range of 50 to 100 µM. For the same substance, the IC50 in test [2] was 50 to 100 µM. Also, the “block of channels” value in test [3] is “does not block; also recorded: not blocked”.

For the substance “Ac-EAGSMRSTWEGTPPRFLNLIPLLVFNENEKGKARDFFTGRKRK-NH2 [γ-43]”, the 50% inhibitory concentration (IC50) in test [1] (HAE primary cultures, nonlinear curve fitting, read-out: IC50, inhibition of short circuit currents) was 2000 nM and 2000 to 3000 nM. The “inhibition of amiloride sensitive short circuit currents” value in test [1] (listed as γ cleavage product) is recorded as “inhibited in a dose dependent manner”; in test [1] (listed as γ-peptide) it was “potent inhibitor; also recorded: strong inhibition”. In test [1] (stated jointly for HBE and mpkCCDc14, read-out: apparent Ki, inhibition of endogenous ENaC activity), the Ki is roughly 2 µM.
